Experiment [1] relates to SCD (HbSS mice), Townes transgenic mouse model. Briefly: Substance P-induced vaso-occlusive crisis (VOC) occurrence and overall survival in Townes transgenic sickle mice. The experiment is classed as in vivo. An excerpt:
The Townes transgenic mouse model was utilized for this study (Wu L C et al., Blood 2006; 108:1183-1188). A total of 18 mice were assigned to 3 treatment groups; namely: SCD (HbSS mice) treated with masitinib (SCD Masitinib—intervention group), untreated SCD mice (SCD—positive control group), and WT mice (WT—negative control group).
The HbSS-Townes mouse model was created on a mixed genetic background in which the murine adult α-globin genes were replaced with the human α-globin gene (genotype: Hba hα/hα) and the murine adult β-globin genes were replaced with human sickle βS- and fetal Aγ-globin gene fragments linked together (genotype: Hbb hAγβS/hAγβS) (Nguyen J, et al., Blood 2014; 124(21):4916). HbSS-Townes mice have anemia, a shortened red blood cell half-life of 2.5 days and a severe disease phenotype. Control HbAA-Townes mice were created by replacing the murine globin genes with human α-globin gene (genotype: Hba hα/hα) and linked human βA- and fetal Aγ-globins (genotype: Hbb hAγβA/hAγβA).
Mice were administered freshly prepared solutions of substance P (4 to 40 mg/kg) via intravenous injection.
Mice in the intervention group were administered masitinib at 100 mg/kg/day via gavage for 4 days prior to injection of substance P. […]
Vaso-occlusive crisis (VOC) occurrence and overall survival were analyzed in the mice. […]

The test system of experiment [2] is lung tissue of SCD (HbSS) Townes mice. Briefly: Lung tissue histology (hematoxylin and eosin; anti-FcεRIα immunostaining) of SCD mice after substance P injection. The note with it: masitinib 100 mg/kg/day via gavage for 4 days prior to substance P. The class given is in vivo. The protocol: The Townes transgenic mouse model was utilized for this study (Wu L C et al., Blood 2006; 108:1183-1188). A total of 18 mice were assigned to 3 treatment groups; namely: SCD (HbSS mice) treated with masitinib (SCD Masitinib—intervention group), untreated SCD mice (SCD—positive control group), and WT mice (WT—negative control group). Mice were administered freshly prepared solutions of substance P (4 to 40 mg/kg) via intravenous injection. Mice in the intervention group were administered masitinib at 100 mg/kg/day via gavage for 4 days prior to injection of substance P. Lung tissue was processed immediately after death by cervical dislocation and fixed in 10% buffered formalin. For analysis of the lung tissue cellular structure, samples were stained with hematoxylin and eosin. For analysis of mast cell infiltration, samples were stained with an anti-FcεRIα primary antibody and a fluorophore secondary antibody. The cause of death was then analyzed. […] Lung tissue sections were stained with hematoxylin and eosin. For immunofluorescence, lung tissue sections were incubated with an anti-FcεRIα primary antibody and then stained with a fluorophore secondary antibody.

Turning to `Cc1ccc(NC(=O)c2ccc(CN3CCN(C)CC3)cc2)cc1Nc1nc(-c2cccnc2)cs1` [masitinib, 4-(4-methylpiperazin-1-ylmethyl)-N-[4-methyl-3-(4-pyridin-3ylthiazol-2-ylamino)phenyl]benzamide], the “Overall survival (death)” value in experiment [1] (SCD mice pretreated with masitinib 100 mg/kg/day via gavage for 4 days prior to injection of substance P, 83% of untreated SCD mice died in the first 3 hours (FIG. 1)) is “none died”. The “Vaso-occlusive crisis (VOC) occurrence” value in experiment [1] (SCD mice pretreated with masitinib 100 mg/kg/day via gavage for 4 days prior to intravenous injection of substance P, all untreated SCD mice experienced VOC) was “did not present any VOC”. Also, the “Infiltration of lung tissue by FcεRI-positive cells (mast cells)” value in experiment [2] (anti-FcεRIα immunofluorescence, versus untreated SCD mice (FIGS. 2A to 2H)) was “to a far lesser degree”. Moreover, in experiment [2] (concluded from limited FcεRI-positive cell infiltration and absent or limited edema), the “Development of acute chest syndrome (ACS)” value was “did not develop ACS”. Besides, in experiment [2] (hematoxylin and eosin staining, versus untreated SCD mice), the Lung edema entry is recorded as “reduced”.
